Results: US7572376B2, “Process for producing 1,3-propanediol” (Tate & Lyle Ingredients Americas, Inc., priority 2003, dated 2009)

Assays:
[1] = log P=[solute]octanol/[solute]water; cited from earlier work
[2] = solvent screen: PDO mixture with single solvents, distribution between solvent and aqueous phase; assay type: physicochemical; details: 30° C.; for Distribution Coefficient Glucose / Distribution Coefficient Glycerol / Distribution Coefficient PDO: conc. in solvent phase / conc. in aqueous phase, aqueous solution 46% w/v PDO, 3.5% glycerol, […] glucose; for Selectivity PDO/Glycerol: distribution coefficient of PDO divided by that of glycerol
Experimental: 10 g of an aqueous solution containing 46% w/v PDO, 3.5% glycerol and 2.9% glucose was heated to 30° C. and the required solvent added in very small quantities until a cloudiness just began to develop. Additional solvent (about 1 g) was added and thoroughly mixed. The mixture was allowed to settle for 10 minutes and then centrifuged to achieve complete phase separation. The two phases (solvent and aqueous) were analyzed.

Row | SMILES | hydrophobic parameter log P [1] | Distribution Coefficient Glucose [2] | Distribution Coefficient Glycerol [2] | Distribution Coefficient PDO [2] | Selectivity PDO/Glycerol [2] | further results
1 | CCCCCCCO [heptanol] | 2.4 | – | – | – | – | –
2 | OCC(O)CO [glycerol] | −2.08 | – | – | – | – | –
3 | CCCCCCCCCC [decane] | 5.98 | – | – | – | – | –
4 | CCCCCCC [heptane] | 4.0 | – | – | – | – | –
5 | CCCCCO [Pentan-1-ol] | – | 0.256 | 0.417 | 0.609 | 1.46 | –
6 | CCCCCCCCCCCCO [dodecanol] | 5.0 | – | – | – | – | –
7 | CC(=O)CC(C)C [4-Methyl Pentan-2-one] | – | 0.001 | 0.008 | 0.033 | 4.03 | –
8 | CCOC(C)=O [ethyl acetate] | 0.68 | – | – | – | – | –
9 | CC(=O)OC(C)C [isopropyl acetate] | – | 0.001 | 0.005 | 0.024 | 5.17 | –
10 | CCCCCCCC [octane] | 4.5 | – | – | – | – | –
11 | CCCCCCCC/C=C\CCCCCCCCO [Oleyl Alcohol] | – | 0.001 | 0.024 | 0.038 | 1.60 | –
12 | OCCCCO [1,4 butanediol] | −1.384 | – | – | – | – | –
13 | CCCCO [Butan-1-ol] | – | – | – | – | – | phase formation on adding solvent to the aqueous PDO solution [2]: Only one liquid phase formed
14 | CCCCCCCC/C=C\CCCCCCCC(=O)O [Oleic acid] | – | 0.241 | 0.002 | 0.009 | 5.23 | –
15 | CCCOC(C)=O [propyl acetate] | 1.2 | – | – | – | – | –
16 | CC(O)CO (stereo not shown) [1,2 PDO] | −1.003 | – | – | – | – | –
